Our source for the cytotoxicity values is ChEMBL document CHEMBL3507680, “University of Dundee, Gates Library screen for HepG2 cell viability”.

This data set in a line: Human HepG2 cell viability assay in 384 well format. As to conditions: HepG2 cells, read-out: Inhibition. On the set-up: dose 125 nL, time 70.5 hour; concentration not given beside the values. The class given is toxicity, cell-based.
For the molecule `CS(=O)(=O)NCCc1cccc2cccnc12`, the cytotoxicity at 70.5 h was determined as 25.3%.

Turning to `CNC(=O)CN1CCCC12CCN(Cc1c[nH]cn1)CC2`, the cytotoxicity at 70.5 h is -24.2%. As for `O=C(CCc1nc2cccnc2[nH]1)NCc1ccncc1`, the cytotoxicity at 70.5 h was -19.4%. Regarding `COCCN1CCCC2(CCN(C(=O)c3cnc(O)cn3)C2)C1=O` (stereo not drawn), the cytotoxicity at 70.5 h is -6.54%. For `CCc1cnc(CN(C)C2CCN(CCc3ccccn3)C2)o1` (stereo not drawn), the cytotoxicity at 70.5 h amounted to 10.2%. Regarding `COCCCN1C(=O)CC[C@H]2CN(Cc3ccc4occc4c3)CC[C@H]21`, the cytotoxicity at 70.5 h worked out at 26.4%. As to `Cc1cc(NC2CCc3nc(C)nn3C2)n2ncnc2n1` (stereo not drawn), the cytotoxicity at 70.5 h is -98.6%. On to `CCc1cc(N2CCC(NCCc3ccccc3F)CC2)nc(C)n1`, for which the cytotoxicity at 70.5 h amounted to 5.19%. Regarding `CCC(=O)NCC(=O)Nc1ncc(I)cc1C`, the cytotoxicity at 70.5 h came to 0.64%. In the case of `Cn1ccc(C(=O)Nc2cccc(-c3ccc4c(c3)CCO4)n2)cc1=O`, the cytotoxicity at 70.5 h was -20.6%. For the molecule `COc1ccc(N2CCN(C(=O)CCCc3cn[nH]c3)CC2=O)cc1`, the cytotoxicity at 70.5 h was found to be 24.3%. As to `CN(C)S(=O)(=O)c1ccc(CSCC(=O)NC(C)(C)C)o1`, the cytotoxicity at 70.5 h is -8.48%. With `N#Cc1cccc(CN2CC[C@@H]3[C@@H]2CC(=O)N3Cc2ccncc2)c1`, the cytotoxicity at 70.5 h is -3.67%. For `CC1CN(CCc2ccccn2)CCN1c1ccc2nncn2n1` (stereo not drawn) the value was -3.22%. Regarding `O=C(c1cn(Cc2ccc(Cl)cc2)nn1)N1CCCO1`, the cytotoxicity at 70.5 h is -10.9%. Consider `CC(C)(C)CCNC(=O)c1ccc(Cl)c(NS(C)(=O)=O)c1`, for which the cytotoxicity at 70.5 h came out at 8.13%.

Consider `COc1cccc(CC(=O)N2CCC(NCc3c[nH]nc3C)CC2)c1`, for which the cytotoxicity at 70.5 h is -4.19%. `CS(=O)(=O)N1CC(c2ncn3ccccc23)C1`: the cytotoxicity at 70.5 h is -9.83%. For the molecule `O=c1[nH]c(N2CCCCC2)nc2c1CCN(Cc1cccnc1)C2`, the cytotoxicity at 70.5 h is -6.55%.

For `Cc1cnn(C2CCCN(C(=O)c3ccc(C(N)=O)cn3)C2)c1` (stereo not drawn), the cytotoxicity at 70.5 h was determined as 3.91%. Regarding `Cc1nn(C)cc1C(=O)N1C[C@H]2CC[C@@H]1CN(S(=O)(=O)N(C)C)C2`, the cytotoxicity at 70.5 h is -4.81%. For `CC(C)=CCN1CCN(S(=O)(=O)c2cn(C)cn2)[C@H]2CS(=O)(=O)C[C@H]21` the value was 48.8%.

In the case of `CN(C(=O)C1CC(=O)N(CCc2ccccc2)C1)c1nccs1` (stereo not drawn), the cytotoxicity at 70.5 h was 16.6%. In the case of `c1ccc(-c2nc(SCc3nnc(C4CC4)o3)n[nH]2)nc1`, the cytotoxicity at 70.5 h is -4.88%.

As for `Cc1c(C2c3nc[nH]c3CCN2CCOCc2ccccc2)cnn1C` (stereo not drawn), the cytotoxicity at 70.5 h was -10.4%. As for `O[C@@]1(CNCCCOc2cccnc2)CCCN2CCCC[C@@H]21`, the figure is 5.47%; as for `Cc1nc(C)n(CC(C)C(=O)N2CCC(CN3CCOCC3)CC2)n1` (stereo not drawn), 4.58%. As for `CN1CCCc2cc(NC(=O)N3CCOC(C(N)=O)C3)ccc21` (stereo not drawn), the figure is 3.77%. Take `CCn1nc(C)c(NC(=O)c2nnn(Cc3ccccc3)c2OC)c1C`: the cytotoxicity at 70.5 h is -5.09%. `c1coc(-c2nc(CNC3CCCNC3)no2)c1` (stereo not drawn): the cytotoxicity at 70.5 h was 1.79%. For `CN1CCOCC2(CCCN(C(=O)c3cnccn3)C2)C1` (stereo not drawn) the value was 0.574%. As to `OCC1(Cc2cccc(Cl)c2)CCCN(c2ncccn2)C1` (stereo not drawn), the cytotoxicity at 70.5 h was 28.5%. As to `Cc1ccc(C(CNCc2nccn2C)N2CCOCC2)s1` (stereo not drawn), the cytotoxicity at 70.5 h is -2.09%.

Take `Cc1nc(-c2cc(C(=O)NCCN3CCOCC3)c3ccccn23)cs1`: the cytotoxicity at 70.5 h is -131%. For `CCCN1CCC(c2nc3ccc(-c4cccc(F)c4)cn3n2)CC1` the value was -7.17%; for `Clc1ccccc1OC1CN(CC2CCOC2)C1` (stereo not drawn), 8.25%; for `COCCNC(=O)C[C@@H]1COC[C@H]2CN(C(=O)c3cnccn3)C[C@@H]12`, -6.71%. Take `O=C(Cc1ccsc1)N1CCOC(c2nc(-c3ncccn3)no2)C1` (stereo not drawn): the cytotoxicity at 70.5 h was -2.86%. Consider `CCc1nc2n(n1)CC(NCc1ncc(-c3ccccc3)o1)CC2` (stereo not drawn), for which the cytotoxicity at 70.5 h was -5.1%. In the case of `COc1ccc(-c2nc(CN3CCCC3Cn3cccn3)no2)cc1` (stereo not drawn), the cytotoxicity at 70.5 h was -0.173%. As for `Cc1cccc(C(=O)NCC2CCS(=O)(=O)C2)n1` (stereo not drawn), the cytotoxicity at 70.5 h is -1.5%.

`CN(Cc1noc(C2CC2)n1)C1CCN(Cc2ccc(F)c(F)c2)C1` (stereo not drawn): the cytotoxicity at 70.5 h was -8.17%. With `CN(Cc1cnn(C)c1)C(=O)CCS(=O)(=O)c1ccc2c(c1)OCCO2`, the cytotoxicity at 70.5 h was -112%. As to `N#CCCN(Cc1ccccn1)C(=O)c1cccc(CN2CCCC2)c1`, the cytotoxicity at 70.5 h is -1.86%. On to `Cc1nc(CNCc2ccc(N3CCC(CO)CC3)nc2)cs1`, for which the cytotoxicity at 70.5 h was -1.44%. `O=C(CN(Cc1cccs1)c1ccc(F)cc1)NC1CCOCC1`: the cytotoxicity at 70.5 h is -1.98%. As for `Cc1cc(C(=O)N2CCn3cc(CN(C)C)nc3C2)no1`, the figure is -7.02%; as for `Cc1sc(Oc2ccccc2Cl)nc1C(=O)O`, 7.28%; as for `COCCN1CCC1c1cc(N)nc(C)n1` (stereo not drawn), -2.65%.

In the case of `Cc1cc(C[C@@H]2CCC[C@H]2NCc2ccccc2C(F)(F)F)on1`, the cytotoxicity at 70.5 h was -17.3%. On to `CCn1c(C2CCCN(Cc3ccc(OC)c(C)c3C)C2)nn(C)c1=O` (stereo not drawn), for which the cytotoxicity at 70.5 h was -5.07%. As for `O=C(NC1CC(=O)N(C2CC2)C1)c1cccs1` (stereo not drawn), the cytotoxicity at 70.5 h was determined as 11.1%. As to `OCCOc1ccc(NCc2cccc3cccnc23)cn1`, the cytotoxicity at 70.5 h worked out at 17.1%. As to `CC(NC(=O)NCc1cccc(F)c1)(C(=O)O)c1ccco1` (stereo not drawn), the cytotoxicity at 70.5 h is -8.22%. On to `CSCC(=O)N1CCOC(c2nc(C(C)C)n[nH]2)C1` (stereo not drawn), for which the cytotoxicity at 70.5 h was -7.67%.

Consider `CC(=O)N1CCCN(C(=O)CCOc2ccc(C(C)C)cc2)CC1`, for which the cytotoxicity at 70.5 h amounted to 21.2%. For `COC(=O)c1ccc(OC)c(Cn2cc(N)cn2)c1` the value was -19.2%; for `O=C(NCc1ccc(-n2cncn2)nc1)c1cnccn1`, 7.67%; for `COc1ccc(CNCC2CNc3ccnn3C2)cn1` (stereo not drawn), -3.27%. As for `Cc1ccc(-n2nc3n(c2=O)CCN(C(=O)c2ccc(Cl)cc2)C3)cc1`, the cytotoxicity at 70.5 h was -10.2%. As for `CN1CCN(C(=O)c2ccc3c(c2)[nH]c(=O)n3C2CCCC2)CC1`, the figure is 9.54%; as for `Cc1cc(NCCc2nnc(N)s2)nc(-c2cccnc2)n1`, -6%; as for `Cc1ccc([C@]2(O)CC[C@H]3CN(Cc4ccccc4F)C[C@H]32)nc1`, -9.24%.

`O=C(Cc1ccccn1)N1C[C@H]2CCC[C@@]2(COc2ccccn2)C1`: the cytotoxicity at 70.5 h is 6.94%. For `Cc1nn(-c2ccccc2)c(C)c1CC(=O)NC1CC(=O)N(C)C1` (stereo not drawn), the cytotoxicity at 70.5 h was -7.27%.

In the case of `O=C(c1ccc(O)cc1)N1C[C@@H]2CCN(c3cccnc3)C[C@@H]2C1`, the cytotoxicity at 70.5 h was determined as 22.7%.

With `CCOc1ccc(NC(=O)c2cc(C)c(C)o2)cc1CO`, the cytotoxicity at 70.5 h amounted to 26.7%. Turning to `Cn1cnc(S(=O)(=O)NCCCN2CCCC2)c1Cl`, the cytotoxicity at 70.5 h is -4.58%. Regarding `Cc1ccsc1-c1nccn1C1CC(=O)N(C(C)C)C1` (stereo not drawn), the cytotoxicity at 70.5 h is -5.72%. Consider `CC(Cn1cccn1)NC(=O)N(C)Cc1cnn(C)c1` (stereo not drawn), for which the cytotoxicity at 70.5 h is -7.21%. Take `Fc1cnc(N2C[C@@H]3C[C@@H](c4nc(C5CC5)cs4)O[C@@H]3C2)nc1`: the cytotoxicity at 70.5 h was -1.67%. For the molecule `O=C(c1ccc2nncn2c1)N1CCSC2(CCCCC2)C1`, the cytotoxicity at 70.5 h was 11.5%. Take `CN(C)C(=O)CC1CC2(CCN(Cc3ccco3)CC2)c2ccccc21` (stereo not drawn): the cytotoxicity at 70.5 h was -27.6%. For the molecule `CN(C)C(=O)COC[C@]12COC[C@H]1CN(Cc1ccco1)C2`, the cytotoxicity at 70.5 h was 0.692%. For the molecule `CC(C)NC(=O)[C@@H]1C[C@H]2NCC[C@H]2O1`, the cytotoxicity at 70.5 h is -7.3%.

As to `Cc1cccc(C(C(=O)NCCCc2ccccn2)N(C)C)c1` (stereo not drawn), the cytotoxicity at 70.5 h was 21.2%. For `O=C(NC1CC1)C1CCCN1c1ncnc2ccsc12` (stereo not drawn) the value was -9.43%; for `c1nc(CNC2CCOCC2)c2n1CCCN(CC1CC1)C2`, -3.82%; for `CC(C)NC(=O)CC(C)NCc1cc(Cl)ccc1F` (stereo not drawn), -3.06%. Turning to `O=C(C1CCCO1)N1CCC(n2cc(-c3ccc(F)cc3)nn2)CC1` (stereo not drawn), the cytotoxicity at 70.5 h is 0.724%.

Take `Cn1cc(CN2CC[C@@H]3[C@@H](CCC(=O)N3CCc3ccccc3)C2)cn1`: the cytotoxicity at 70.5 h is -0.863%.

Turning to `Cc1cc(NCCC(=O)NC2CCCCC2)nc(-c2ccncc2)n1`, the cytotoxicity at 70.5 h turned out to be 24.9%. `CC(C)c1nc(C(=O)N2CCCC(N)CC2)cs1` (stereo not drawn): the cytotoxicity at 70.5 h worked out at 25.2%.

Turning to `CC(C)c1nn(C)c(N(C)C)c1CNC(C)c1ccccc1F` (stereo not drawn), the cytotoxicity at 70.5 h is -1.04%.

Turning to `O=C1N(c2ccsc2)CCC12CCCN(Cc1ccccn1)C2` (stereo not drawn), the cytotoxicity at 70.5 h was -4.36%.

As to `Cn1nc2c(cc1=O)CN(Cc1nc(-c3ccsc3)no1)CC2`, the cytotoxicity at 70.5 h was -19.7%. Turning to `CCn1cc(NC(=O)C(C)n2ncc(Cl)c2C)c(C(=O)NCC(C)C)n1` (stereo not drawn), the cytotoxicity at 70.5 h is -3.04%. As to `NC(=O)CCC1CCCN(c2ccc3c(Cl)ccnc3c2F)C1` (stereo not drawn), the cytotoxicity at 70.5 h was -6.43%. With `COCCNC(=O)N1CCOCC1c1c(C)nn(C)c1C` (stereo not drawn), the cytotoxicity at 70.5 h is -1.43%.

With `Cc1ccccc1C(=O)N1CC[C@@H](N2CCC(O)CC2)[C@H](O)C1`, the cytotoxicity at 70.5 h is -1.6%.

Take `CCCc1ccc(C(=O)N2CCc3c(nc(C)nc3N(C)C)C2)cc1`: the cytotoxicity at 70.5 h was -0.957%. For `O=C(CN1CC(c2nc(Cc3ccccc3)no2)C1)NCC1CCCO1` (stereo not drawn) the value was -0.885%. Regarding `COc1cccc(OCC(=O)N2CCC3(CC2)[C@H](O)C[C@@H]3OC)c1`, the cytotoxicity at 70.5 h was -5.93%. As for `O=C(c1ccccn1)N1CCCN(Cc2nnc(C3CC3)o2)CC1`, the cytotoxicity at 70.5 h was -9.21%. On to `c1cnc(N2CCC(c3n[nH]c4ncccc34)C2)nc1` (stereo not drawn), for which the cytotoxicity at 70.5 h was -7.93%. On to `O=C(N1CCCC1)N1Cc2nccn2CC(COc2cccnc2)C1` (stereo not drawn), for which the cytotoxicity at 70.5 h was -9.49%. On to `CCN1CCC(NC(=O)CNC(C)Cn2cccn2)CC1` (stereo not drawn), for which the cytotoxicity at 70.5 h was 11.4%. Regarding `OC1(CN2CCCCC2)CCN(c2cccc(C(F)(F)F)n2)C1` (stereo not drawn), the cytotoxicity at 70.5 h is -14.1%.
